# Reference: patent US12263187B2, “Treatment of bone marrow pathologies with polysulfated polysaccharides” (PARADIGM BIOPHARMACEUTICALS LTD, priority 2017, dated 2025)
# Entries after “also recorded” stand apart in the source; their conditions may differ.
# Tests used:
# [1] = system: Knee OA patients with Bone Marrow Edema Lesions; experiment: Example 1: PPS in knee OA patients with Bone Marrow Edema Lesions on MRI (TGA Special Access Scheme); format: in vivo, human; design: key to After PPS/BMEL: Severe: (>20 mm); Moderate: (5 mm to 20 mm); Minimal: (<5 mm); Absent; conditions: for After PPS/BMEL / After PPS/NRS Pain / After PPS/Lysholm Knee Score: 2 mg/kg IM 2x weekly for 3 weeks; for After PPS/NRS Pain / After PPS/Lysholm Knee Score: scored 2 to 4 weeks after last injection; for After PPS/NRS Pain: scale 0-10; for After PPS/Lysholm Knee Score: scale 0-100
# Excerpt: Example 1 is a study of the safety, tolerability and results of patients treated with PPS with Bone Marrow Edema Lesions of the knee and suffering from osteoarthritis under the TGA Special Access Scheme (B). (Approval to use PPS as treatment for the patient was acquired from Department of Health-Therapeutic Goods Administration, Australian Government under the Special Access Scheme (SAS) since the injectable form of PPS was not a registered product in Australia.)
# Patients in the study had the following characteristics: • High pain scores • Poor joint function scores • MRI evidence of Bone Marrow Edema Lesions and joint effusions • Kellgren-Lawrence (3-4) OA subjects currently on waiting list for Total Knee Replacement • Failed standard of care including intraarticular injections of corticosteroids • The protocol featured the following: • Treatment: 2× weekly intramuscular injections of 2 mg/kg for 3 weeks (total of 6 injections) • All patients abstained from NSAIDs during PPS treatment • The treatment outcomes of pain and function were scored before and after PPS treatment 2 to 4 weeks after the last PPS injection • All patients had baseline subchondral BML.
# Numerical Rating Scale (NRS) is an 11-point scale (0-10). A state of no pain is 0 and the worst pain imaginable is 10.
# Lysholm Knee Score is a total score of 0-100 is calculated based on the results from the eight functional components of the Lysholm knee score scale: Limp (5 points), Support (5 points), Locking (15 points), Instability (25 points), Pain (25 points), Swelling (10 points), Stair climbing (10 points), and Squatting (5 points). The total score is assigned to rating categories as follows: 95-100 indicates excellent, 84-94 indicates good, 65-83 indicates fair and <65 indicates poor function.
# [2] = system: person with knee osteoarthritis and subchondral bone marrow edema lesions; experiment: Example 2: case report of knee osteoarthritis with subchondral BML; format: in vivo, human
# Description: The patient was administered a course of Pentosan Polysulphate Sodium (PPS) intramuscularly twice weekly for 3 weeks. […] These MRI interpretations corroborate improved clinical outcome measures ensuing therapeutic intervention with PPS.
# A person with a history of arthroscopic partial medial meniscectomy presented with pain of the left knee and was on a waiting list for total knee replacement. […] The BML in the medial femoral condyle measured 11×7×12 mm (CC×transverse×AP) and the medial tibial plateau BML measured 8×8×8 mm (CC×transverse×AP). […] Following patient consent, the pain assessment score was determined by the Numerical Rating Scale (NRS) and functional capacity assessments included the Lysholm knee score. At pre-treatment, the NRS pain score was severe with a score of 8 out of 10 (range 0-10) and the Lysholm Knee score was 37 out of 100 reflecting poor knee function indicated by problems in stair climbing and limping.
# Since PPS is a weak anticoagulant with 1/15 the activity of heparin, the patient was monitored for safety by assessments of complete blood count, APTT, prothrombin time, liver function tests, renal function tests and serum calcium prior to commencement of treatment and periodically during treatment with Pentosan Polysulphate Sodium. The clinical status of the patient was checked regularly throughout the course of the treatment and follow up period.
# After evaluation, the patient was considered suitable for treatment with Pentosan Polysulphate Sodium (PPS) under the SAS. The patient was administered 2 mg/kg of PPS twice weekly with a minimum of three and a maximum of four days between dosages. Six intramuscular injections were administered into the gluteus maximus muscle over a three-week period (2 injections per week). Three follow-up appointments were made at 10, 24 and 38 days post-completion of injection regimen.
# [3] = system: patient with chronic lower back pain with a Modic Type 1 pattern on MRI; experiment: Example 3: case report for chronic low back pain with Modic Type 1 pattern; format: in vivo, human; conditions: patient one
# Description: Patient one, a person with chronic lower back pain with a Modic Type 1 pattern on MRI scan of the L3/L4 and L4 L5 region of the spine presented in the clinics with unresolved persistent pain despite current standard of care treatment with Mobic, an NSAID.
# The baseline NRS pain score prior to treatment with PPS was a high score of 7. Patient was administered by subcutaneous injection a dose of 150 mg fixed dose of PPS twice weekly for 4 weeks (ie a total of 8 injections). […] During the course of the treatment the patient had abstained from any other therapeutic intervention.
# [4] = system: BMEL; experiment: Further work: BMEL assessed by MRI after SC PPS twice-weekly for 6 weeks; format: in vivo; conditions: 2 mg/kg PPS or fixed dose of 150 mg, slow SC injection twice-weekly for 6 weeks
# [5] = system: Modic Changes; experiment: Further work: Modic Changes assessed by MRI after SC PPS twice-weekly for 6 weeks; format: in vivo; conditions: 2 mg/kg PPS or fixed dose of 150 mg, slow SC injection twice-weekly for 6 weeks
# [6] = system: Knee OA patients with Bone Marrow Edema Lesions; experiment: Example 1: PPS in knee OA patients with Bone Marrow Edema Lesions on MRI (TGA Special Access Scheme); format: in vivo, human; conditions: standard four week course of PPS
# [7] = fraction of the activity of heparin; cited from earlier work
substance,measurement,setting,value
Pentosan Polysulphate Sodium [PPS],After PPS/BMEL,"[1]; patient four, before PPS: Moderate (5 mm to 20 mm)",Minimal ((<5 mm))
same,After PPS/NRS Pain,"[1]; patient four, before PPS: 4",1
same,After PPS/Lysholm Knee Score,"[1]; patient four, before PPS: 73",90
same,After PPS/BMEL,"[1]; patient three, before PPS: Severe (>20 mm)",Moderate ((5 mm to 20 mm))
same,After PPS/NRS Pain,"[1]; patient three, before PPS: 4",0
same,After PPS/Lysholm Knee Score,"[1]; patient three, before PPS: 54",73
same,After PPS/BMEL,"[1]; patient two, before PPS: Moderate (5 mm to 20 mm)",Absent
same,After PPS/NRS Pain,"[1]; patient two, before PPS: 8",0
same,After PPS/Lysholm Knee Score,"[1]; patient two, before PPS: 37",70
same,adverse events,"[1]; patients with BMEL and osteoarthritis under TGA SAS(B), 2 mg/kg IM 2x weekly",no adverse events were reported
same,bone marrow oedema lesions at the medial femoral condyle and medial tibial plateau on MRI,"[2]; 2 mg/kg IM twice weekly for 3 weeks (6 injections), MRI five weeks after first injection, pre-treatment BML 11x7x12 mm and 8x8x8 mm",resolution of medial compartment bone oedema; also recorded: complete resolution; also recorded: complete reduction
same,knee (joint) effusion on MRI,"[2]; 2 mg/kg IM twice weekly for 3 weeks, axial imaging at level of suprapatellar pouch, five weeks after first injection",reduction in size of knee effusion; also recorded: complete resolution; also recorded: marked reduction; also recorded: reduction in the size
same,adverse events,"[2]; 2 mg/kg IM twice weekly for 3 weeks, during treatment and follow up period",did not present with any drug-related or nondrug-related adverse response; also recorded: did not report any adverse effects; also recorded: no post-treatment adverse events
same,improvement of the Lysholm Knee score,"[2]; 2 mg/kg IM twice weekly for 3 weeks, four weeks after the last injection, 37 to 65",43%
same,Lysholm Knee score post-treatment,"[2]; 2 mg/kg IM twice weekly for 3 weeks, four weeks after the last injection, scale 0-100, pre-treatment score 37",65
same,NRS pain score post-treatment,"[2]; 2 mg/kg IM twice weekly for 3 weeks, scale 0-10, pre-treatment score 8",0
same,pain soon after the 4th injection,[3]; 150 mg fixed dose SC twice weekly,improvement in pain
same,adverse events,"[3]; 150 mg fixed dose SC twice weekly for 4 weeks, during and after treatment",No adverse events
same,BMEL volume as assessed by magnetic resonance imaging,[4],consistent BMEL volume reduction
same,Modic Changes as assessed by magnetic resonance imaging,[5],consistent resolution
same,BMEL on MRI,[6],clearly visible BMEL reduction
same,pain and mobility scores,[6],improved
same,anticoagulant activity relative to heparin,[7],1/15
